The target of one experiment is p38β (Homo sapiens, UniProt Q15759). Briefly: SAPK2b Kinase Activity (p38β). The experiment is classed as biochemical. The note with it: compound at 2 μm. The method, then: (§1) SAPK2b Kinase Activity: In a final reaction volume of 25 μl, SAPK2b (h) (5-10 mU) is incubated with 25 mM Tris pH 7.5, 0.02 mM EGTA, 0.33 mg/ml myelin basic protein, 10 mM MgAcetate and [γ-^33P-ATP] (specific activity approx. 500 cpm/pmol, concentration as required). The reaction is initiated by the addition of the MgATP mix. After incubation for 40 minutes at room temperature, the reaction is stopped by the addition of 5 μl of a 3% phosphoric acid solution. 10 μl of the reaction is the spotted onto a P30 filtermat and washed three times for 5 minutes in 75 mM phosphoric acid and once in methanol prior to drying and scintillation counting.

In another experiment the target is Mnk2 (Homo sapiens, UniProt Q9HBH9). Kind of experiment: Protein kinase inhibition, Mnk2. The experiment is classed as biochemical. Particulars: Rate (μM) 2, read-out: % Control.
In the next experiment the test system is Abl1. Kind of experiment: Kinase activity at ATP Km,app, Abl1. Format: biochemical, mouse. Particulars: compound 2 μM. The method, then:
Abl Kinase activity: In a final reaction volume of 25 μL, Able (m) (5-10 mU) is incubated with […] pH 7.0, 0.2 mM EDTA, 50 μM EAIYAAPFAKKK, 10 mM MgAcetate and [γ-^33P-ATP] (specific activity approx. 500 cpm/pmol, concentration as required). The reaction is initiated by the addition of the MgATP mix. After incubation for 40 minutes at room temperature, the reaction is stopped by the addition of 5 μL of a 3% phosphoric acid solution. 10 μL of the reaction is then spotted onto a P30 filtermat and washed three times for 5 minutes in 75 mM phosphoric acid and once in methanol prior to drying and scintillation counting.

The target in a further experiment is CK2-alpha 1 (Homo sapiens, UniProt P68400). Kind of experiment: Kinase activity at ATP Km,app, CK2-alpha 1. The note with it: compound 2 μM. Format: biochemical.
The target of another experiment is GSK3-beta (Homo sapiens, UniProt P49841). Kind of experiment: Kinase activity at ATP Km,app, GSK3-beta. The experiment is classed as biochemical. Particulars: 40 min, compound 2 μM. The method, then:
GSK3β Kinase Activity: In a final reaction volume of 25 μl, GSK3β (h) (5-10 mU) is incubated with […] MOPS pH 7.0, 0.2 mM EDTA, […](p)EDEEE (phosphor GS2 peptide), 10 mM MgAcetate and [γ-^33P-ATP] (specific activity approx. 500 cpm/pmol, concentration as required). The reaction is initiated by the addition of the MgATP mix. After incubation for 40 minutes at room temperature, the reaction is stopped by the addition of 5 μl of a 3% phosphoric acid solution. 10 μl of the reaction is then spotted onto a P30 filtermat and washed three times for 5 minutes in 50 mM phosphoric acid and once in methanol prior to drying and scintillation counting.

In the next experiment the target is Lck (Homo sapiens, UniProt P06239). Briefly: Kinase activity at ATP Km,app, Lck. Format: biochemical. Particulars: 40 min, compound 2 μM. The method, then:
as §1, with “Lck Kinase” for “SAPK2b Kinase”, “[…], Lck” for “25 μl, SAPK2b”, “with 50” for “with 25”, “7.5, 0.1” for “7.5, 0.02”, “EGTA, 0.1 mM Na3VO4, 250 μM KVEKIGEGTYGVVYK (Cdc2 peptide),” for “EGTA, 0.33 mg/ml myelin basic protein,”, “is then” for “is the”

In another experiment the target is MAPKAP-K2 (Homo sapiens, UniProt P49137). Briefly: Kinase activity at ATP Km,app, MAPKAP-K2. The experiment is classed as biochemical. Particulars: 40 min, compound 2 μM. How it is done: MAPKAP-K2 Kinase Activity: In a final reaction volume of 25 μl, MAPKAP-K2 (h) (5-10 mU) is incubated with 50 mM Na-β-glycerophosphate pH 7.5, 0.1 mM EGTA, […] KKLNRTLSVA, 10 mM MgAcetate and [γ-^33P-ATP] (specific activity approx. 500 cpm/pmol, concentration as required). The reaction is initiated by the addition of the MgATP mix. After incubation for 40 minutes at room temperature, the reaction is stopped by the addition of 5 μl of a 3% phosphoric acid solution. 10 μl of the reaction is then spotted onto a P30 filtermat and washed three times for 5 minutes in 75 mM phosphoric acid and once in methanol prior to drying and scintillation counting.

The target in another experiment is PKA (Bos taurus, UniProt P00517). Briefly: Kinase activity at ATP Km,app, PKA. The experiment is classed as biochemical, bovine. The note with it: 40 min, compound 2 μM. How it is done:
PKA Kinase Activity: In a final reaction volume of 25 μl, PKA (b) (5-10 mU) is incubated with 8 mM MOPS pH 7.0, 0.2 mM EDTA, 30 μM LRRASLG (Kemptide), 10 mM MgAcetate and [γ-^33P-ATP] (specific activity approx. 500 cpm/pmol, concentration as required). The reaction is initiated by the addition of the MgATP mix. After incubation for 40 minutes at room temperature, the reaction is stopped by the addition of 5 μl of a 3% phosphoric acid solution. 10 μl of the reaction is the spotted onto a P30 filtermat and washed three times for 5 minutes in 50 mM phosphoric acid and once in methanol prior to drying and scintillation counting.

The next experiment concerns MCF-7. Briefly: Cell growth inhibition, MCF-7. The experiment is classed as cell-based. Particulars: Homo sapiens, MCF7; MCF-7 cell line; 24 hours; viability by WST-1 or Alamar Blue. The method, then:
(§2) The compounds of Examples 1 and 2 were also tested for cell growth inhibition activity a gains two cell lines, MCF-7 and U266. […], suspended in RPMI 1640 media, supplemented with 10% FBS, were pipetted into 96-well plates at a density of 10,000 cells per milliliter in a volume of […] per well. Cells were allowed to equilibrate overnight at 37 C in 5% CO2. Cells were then incubated in the presence of the test compound at a concentrations ranging from 0.03 μM to 10 μM (at ½ log dilutions) for 24 hours. After the incubation period, cells were assessed for viability using either WST-1 (Biovision) or Alamar Blue (BioSourse). Values from treated cells were compared to values from control cells and values expressed as percent control.
Background: Tetrazolium dyes change colour on reduction, which living cells bring about.

The test system of the next experiment is U266. Briefly: Cell growth inhibition, U266. The experiment is classed as cell-based. Particulars: Homo sapiens, U-266; U266 cell line; 24 hours; viability by WST-1 or Alamar Blue. The method, then: as §2

Here are results for 4 compounds from US7612200B2, “Inhibitors of protein kinases” (Locus Pharmaceuticals, Inc., priority 2004, dated 2009).

A value given as a limit tells only on which side of the number the result lay.

Chain of GSK3-beta (P49841 whole entry): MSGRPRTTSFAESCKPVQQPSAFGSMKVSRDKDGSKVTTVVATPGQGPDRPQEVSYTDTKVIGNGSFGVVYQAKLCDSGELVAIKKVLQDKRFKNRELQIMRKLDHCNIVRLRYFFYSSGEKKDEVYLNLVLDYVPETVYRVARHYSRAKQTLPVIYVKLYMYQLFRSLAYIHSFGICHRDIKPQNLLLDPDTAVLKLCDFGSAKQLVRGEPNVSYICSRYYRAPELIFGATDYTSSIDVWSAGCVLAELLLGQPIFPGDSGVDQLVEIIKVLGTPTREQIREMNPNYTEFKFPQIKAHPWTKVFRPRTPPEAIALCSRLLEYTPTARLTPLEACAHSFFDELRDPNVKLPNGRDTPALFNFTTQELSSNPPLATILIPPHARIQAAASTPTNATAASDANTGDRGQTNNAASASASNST
Chain of MAPKAP-K2 (P49137 whole entry): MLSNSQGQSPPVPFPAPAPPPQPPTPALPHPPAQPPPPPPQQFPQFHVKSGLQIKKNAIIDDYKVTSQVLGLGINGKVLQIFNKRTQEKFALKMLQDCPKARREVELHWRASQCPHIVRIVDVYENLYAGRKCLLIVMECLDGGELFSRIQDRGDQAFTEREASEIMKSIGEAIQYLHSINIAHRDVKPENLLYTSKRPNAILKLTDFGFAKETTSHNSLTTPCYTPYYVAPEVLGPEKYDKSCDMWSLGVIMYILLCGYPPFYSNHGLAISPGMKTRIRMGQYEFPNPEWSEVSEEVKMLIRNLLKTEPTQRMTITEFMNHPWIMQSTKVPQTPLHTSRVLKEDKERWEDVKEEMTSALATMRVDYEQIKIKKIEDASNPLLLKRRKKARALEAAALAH
Chain of Lck (P06239 whole entry): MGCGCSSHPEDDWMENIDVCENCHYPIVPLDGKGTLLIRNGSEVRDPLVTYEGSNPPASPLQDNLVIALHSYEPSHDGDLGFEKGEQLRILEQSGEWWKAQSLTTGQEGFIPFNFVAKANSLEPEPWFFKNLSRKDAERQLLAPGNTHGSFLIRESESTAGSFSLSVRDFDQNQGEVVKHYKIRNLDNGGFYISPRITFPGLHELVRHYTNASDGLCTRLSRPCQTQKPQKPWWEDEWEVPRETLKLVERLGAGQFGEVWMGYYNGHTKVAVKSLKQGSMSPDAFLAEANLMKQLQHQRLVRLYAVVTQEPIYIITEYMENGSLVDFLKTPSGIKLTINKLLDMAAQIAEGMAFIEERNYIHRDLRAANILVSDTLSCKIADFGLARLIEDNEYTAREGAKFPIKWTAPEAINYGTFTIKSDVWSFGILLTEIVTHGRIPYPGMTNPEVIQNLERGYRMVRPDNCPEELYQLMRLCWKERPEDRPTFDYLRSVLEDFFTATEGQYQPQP
Chain of CK2-alpha 1 (P68400 whole entry): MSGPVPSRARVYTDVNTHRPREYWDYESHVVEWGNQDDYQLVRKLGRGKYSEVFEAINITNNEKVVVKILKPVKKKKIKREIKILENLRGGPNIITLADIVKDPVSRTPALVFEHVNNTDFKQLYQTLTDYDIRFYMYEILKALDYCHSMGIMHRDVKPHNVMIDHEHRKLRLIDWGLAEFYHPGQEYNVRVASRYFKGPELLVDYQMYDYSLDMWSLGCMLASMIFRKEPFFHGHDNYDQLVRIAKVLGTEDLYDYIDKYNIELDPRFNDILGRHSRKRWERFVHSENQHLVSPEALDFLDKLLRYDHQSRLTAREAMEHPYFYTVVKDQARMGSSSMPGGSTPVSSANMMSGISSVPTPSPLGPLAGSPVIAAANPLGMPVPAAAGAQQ
Chain of p38β (Q15759 whole entry): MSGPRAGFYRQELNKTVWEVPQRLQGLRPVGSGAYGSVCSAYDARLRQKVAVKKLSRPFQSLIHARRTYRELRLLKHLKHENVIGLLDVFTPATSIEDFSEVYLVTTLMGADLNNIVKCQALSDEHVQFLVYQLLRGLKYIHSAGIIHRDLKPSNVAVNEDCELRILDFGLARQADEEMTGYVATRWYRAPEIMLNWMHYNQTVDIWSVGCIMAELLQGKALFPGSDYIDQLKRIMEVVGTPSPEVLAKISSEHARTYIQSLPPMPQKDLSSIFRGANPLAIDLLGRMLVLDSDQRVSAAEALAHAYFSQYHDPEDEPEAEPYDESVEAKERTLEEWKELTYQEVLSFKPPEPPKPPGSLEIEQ
Chain of Mnk2 (Q9HBH9 whole entry): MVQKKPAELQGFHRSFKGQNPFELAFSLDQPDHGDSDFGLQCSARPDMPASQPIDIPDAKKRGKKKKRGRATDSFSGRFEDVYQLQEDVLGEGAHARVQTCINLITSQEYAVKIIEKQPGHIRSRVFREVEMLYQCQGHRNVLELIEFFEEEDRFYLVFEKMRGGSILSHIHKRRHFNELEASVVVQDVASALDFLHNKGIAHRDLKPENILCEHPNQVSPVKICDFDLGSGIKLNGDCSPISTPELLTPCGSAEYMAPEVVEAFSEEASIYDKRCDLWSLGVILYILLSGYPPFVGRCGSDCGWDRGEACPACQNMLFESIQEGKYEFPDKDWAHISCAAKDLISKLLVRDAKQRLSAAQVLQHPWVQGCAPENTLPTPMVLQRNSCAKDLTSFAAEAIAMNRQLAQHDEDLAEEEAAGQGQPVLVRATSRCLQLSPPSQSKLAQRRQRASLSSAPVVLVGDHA

With `CC(C)(C)c1cc(C(=O)N2CCS(=O)(=O)CC2)c(NC(=O)Nc2ccc(Oc3ccncc3)cc2)s1` [Example 3, 1-[5-tert-Butyl-3-(1,1-dioxo-1λ^6-thiomorpholine-4-carbonyl)thiophen-2-yl]-3-[4-(pyridin-4-yloxy)phenyl]urea], the “% Inhibition at 2 μm” value on p38β is reported as 76-100%. On Mnk2, the remaining activity at 2 µM fell in the range of 76 to 100%.

In the case of `CC(C)(C)c1cc(C(=O)N2CCNC(=O)C2)c(NC(=O)Nc2ccc(Oc3ccncc3)cc2)s1` [Example 2, 1-(5-tert-Butyl-3-(3-oxo-piperazine-1-carbonyl)thiophen-2-yl)-3-(4-(pyridin-4-yloxy)phenyl)urea], the “% Inhibition at ATP Km,app” value with Abl1 is listed as 0-25%. For the same compound, the inhibition at 2 µM on CK2-alpha 1, at GSK3-beta, against Lck, on MAPKAP-K2 and against PKA was 0 to 25% each time. The IC50 in the experiment on MCF-7 and with U266 was below 10 µM each time.

Consider `CC(C)(C)c1cc(C(=O)N2CCNS(=O)(=O)CC2)c(NC(=O)Nc2ccc(Oc3ccncc3)cc2)s1` [Example 1, 1-(5-tert-Butyl-3-(1,1-dioxo-1λ^6-[1,2,5]thiadiazepane-5-carbonyl)thiophen-2-yl)-3-(4-(pyridin-4-yloxy)phenyl)urea], for which, in the experiment on Abl1, the “% Inhibition at ATP Km,app” value is recorded as 0-25%. The inhibition at 2 µM against CK2-alpha 1, on GSK3-beta, against Lck, at MAPKAP-K2 and at PKA was 0 to 25% in each case. Besides, the concentration for half-maximal inhibition (IC50) in the experiment with MCF-7 and in the experiment with U266 was below 10 µM each time.

For the compound `CC(C)(C)c1cc(C(=O)N2CCNC(=O)CC2)c(NC(=O)Nc2ccc(Oc3ccncc3)cc2)s1` [Example 4, 1-(5-tert-Butyl-3-(5-oxo-[1,4]diazepane-1-carbonyl)thiophen-2-yl)-3-(4-(pyridin-4-yloxy)phenyl)urea], the “% Inhibition at ATP Km,app” value in the experiment with Abl1 is 0-25%. The inhibition at 2 µM at CK2-alpha 1, at GSK3-beta, at Lck, against MAPKAP-K2 and against PKA was 0 to 25% throughout.

For orientation: inhibition means the share of the control response that was lost under treatment. For orientation: IC50 means the concentration needed to halve the response being measured. A high value points to a need for much substance.
